The source of these data is US20240197812A1, “Methods of Treating Cardiac Injury” (Proletariat Therapeutics, Inc., priority 2022, published 2024).

The test system of this series is critically ill patients with vasodilatory shock. Nature of the series: Prospective observational study: safety (thromboembolic events, serum troponin elevation). As to conditions: for Elevated serum troponin - %: troponin I level ≥20 ng/L. It counts as in vivo. On the procedure: A prospective observational study was conducted to evaluate the efficacy, safety feasibility of using angiotensin II as a primary vasopressor for treatment of critically ill patients with vasodilatory shock.
Study Population: A total of 40 patients receiving angiotensin II were matched to 80 control patients who received conventional vasopressors (norepinephrine, vasopressin, metaraminol, epinephrine, or combinations thereof). […] The mean patient age was 63 years (SD 14 years), two-thirds of patients were male, and the median APACHE III score was 65 (IQR 49 to 80). There were no significant differences between groups in terms of demographics, clinical characteristics, illness severity, baseline vasopressor type and dose, physiological parameters, or biochemistry.
Vasodilatory shock was defined by a mean arterial pressure <65 mmHg in the presence of sufficient volume resuscitation and preserved cardiac output, based on either a cardiac index ≥2.3 L/min/m^2, a central venous oxygen saturation ≥70%, or clinician judgement. Patients were excluded if they had kidney failure (i.e., chronic hemodialysis, peritoneal dialysis or a baseline estimated glomerular filtration rate <15 mL/min/1.73 m^2) or were diagnosed with arterial (acute coronary syndrome, ischemic stroke, or mesenteric ischemia) or venous thrombosis (deep vein thrombosis or pulmonary embolism) within the preceding 6 months. […] The mean patient age was 63 (SD 14) years, two-thirds of patients were male, and the median APACHE III score was 65 (IQR 49 to 80). There were no significant differences between the angiotensin II group and the conventional vasopressor group in terms of demographics, clinical characteristics, illness severity, vasopressor type and use, physiological parameters, or biochemistry.
Intervention: Infusions of angiotensin II were initiated to deliver a dose between 5 and 10 ng/kg/min. The dose was adjusted every 5 minutes according to a protocolized titration scheme to achieve a mean arterial pressure (MAP) of ≥65 mmHg (dose range 1.25 to 40 ng/kg/min). During the adjustment period, infusions of other vasopressor agents were weaned and discontinued where possible. Where the MAP was inadequate despite the maximum dose of angiotensin II, additional vasopressor agents were prescribed at the discretion of the clinician. The use of vasopressin (dose range 0.01 to 0.04 IU/min) was preferred over the use of norepinephrine (dose range 0 to 40 mcg/min). Angiotensin II was continued until resolution of shock, death, or for a maximum of 7 days. If ongoing vasopressor therapy was required after this time, norepinephrine was utilized.
Control: The control arm included critically ill patients with vasodilatory shock who received conventional vasopressors. To address confounding by indication and other sources of bias arising from the use of non-randomized data, a propensity score was estimated for the likelihood of treatment with angiotensin II to match patients in the intervention arm to their nearest neighbor in the control arm using a 1:2 ratio without replacement. Propensity scores were generated based on age, sex, APACHE II score, serum creatinine level, vasopressor type and dose at enrollment, and time from ICU admission and initiation of any vasopressor to initiation of angiotensin II.
Secondary Outcomes: Secondary renal outcomes included new or progressive AKI, creatinine trajectory, the requirement for CRRT, time to CRRT liberation, and the development of a major adverse kidney event at day 7 (MAKE7). New AKI was defined and staged according to the Kidney Disease Improving Global Outcomes (KDIGO) criteria as a rise in serum creatinine of ≥26.5 μmol/L in 48 hours or as a ≥50% increase in serum creatinine from baseline within 7 days. Progressive AKI was defined as an increase in AKI severity by at least one KDIGO stage. MAKE7 was a composite of death, dialysis dependence, and a persistent 50% increase in serum creatinine level. […]

For `CC[C@H](C)[C@H](NC(=O)[C@H](Cc1ccc(O)cc1)NC(=O)[C@@H](NC(=O)[C@H](CCCNC(=N)N)NC(=O)[C@@H](N)CC(=O)O)C(C)C)C(=O)N[C@@H](Cc1cnc[nH]1)C(=O)N1CCC[C@H]1C(=O)N[C@@H](Cc1ccccc1)C(=O)O` [Angiotensin II, Asp-Arg-Val-Tyr-Ile-His-Pro-Phe], the “Elevated serum troponin - %” value is “(8) %”. Moreover, under “in vivo”, the “Deep vein thrombosis - %” value is recorded as “(5) %” and the “Pulmonary embolus - %” value is on record as “(10) %”. Besides, for the setting “number of patients”, the “Deep vein thrombosis - no.” value was determined as 2 and the “Pulmonary embolus - no.” value was 4. Besides, the “Elevated serum troponin - %” value (listed as angiotensin II) is given as 8%.
